Reference: US10571387B2, “Apparatus and method for determining the mechanical properties of cells” (Zellmechanik Dresden GmbH, priority 2013, dated 2020)

Test system: HL60 cells
Experiment: Real-time deformability measurement (circularity) of cells in shear flow through a microfluidic channel
Type: cell-based
Text: In order to compare the deformation of cells, it is useful to introduce a single parameter to quantify the degree of deformation for each single cell. This can be done in numerous ways. • The circularity of a closed contour is defined by
[formula] where A is the area enclosed by the contour and l is the perimeter.
The circularity relates the ratio of area and perimeter to that of an ideal circle. For an ideal circle c=1. All other shapes result in values smaller than 1. […] For initially spherical cells such as the HL60 cell line the circularity is a very sensitive measure for the induced deformation. However for cells initially having other shapes the circularity may not be the ideal choice, since completely different shapes can lead to the same circularity.
The following experimental protocol is used for all measurements described in this section. For comparability all studies on HL60 cells presented in this application are carried out during the log phase of cell growth (36 h after splitting). Cells are centrifuged for 5 minutes at 800 rpm (which leads to an outward acceleration of about 100 g) using an Eppendorf 5804 R centrifuge (Eppendorf, Hamburg, Germany). […] The viscosity of the medium was measured with a falling sphere viscometer (HAAKE Kugelfallviskosimeter Typ C, Thermo Electron GmbH, Karlsruhe, Germany). […]

C=C1[C@@H](C)[C@H]2[C@H](Cc3ccccc3)NC(=O)[C@]23[C@H](OC(C)=O)/C=C/[C@@](C)(O)C(=O)[C@@H](C)C/C=C/[C@H]3[C@@H]1O [cytochalasin D]
circularity (peak of the histogram of circularities) (HL60 cells treated with cytochalasin D (2 mM added to a final concentration of 5 μL/ml, 10 minutes at 37° C.), flow rate 0.04 μl/s, 20×20 μm^2 channel section, real time measurement, FIG. 10A): 0.929±0.04
deformation compared to untreated cells (HL60 cells treated with cytochalasin D, flow rate of 0.04 μl/s): deform more
